Measurements taken from patent publication US12576060B2, “Water soluble 3-O-acetyl-11-keto-β-boswellic acid and metal ion compositions, process for their preparation and uses thereof” (LAILA NUTRA PRIVATE LIMITED, priority 2020, dated 2026).
Where “and” joins values, the source holds several entries; their conditions need not be identical. Identical values can stand only once.

How the values were obtained:
[1] = Solubility in water of potassium or sodium salts of AKBA; type: physicochemical; details: volume of water needed to completely dissolve 1.0 g; room temperature (RT)
Procedure: (§1) These potassium or sodium salts of AKBA were evaluated for their solubility in water and determined their pH.

pH of 1% solution = type: physicochemical
Procedure: as §1

[2] = tested on: Leukotriene B4 (LTB4) production; experiment: Assay for Leukotriene B4 (LTB4) inhibition in A23187-induced polymorphonuclear leukocytes (PMNs); type: cell-based; details: human PMNs, 10 μM A23187 induction
Procedure: Human blood was collected from healthy volunteers from a peripheral vein in the presence of 2 mM EDTA. Plasma was separated by centrifugation at 1000 rpm for 10 minutes, and the residual cell pellet was resuspended in RPMI medium supplemented with 10% FBS and 2 mM EDTA. Thirty milliliters of blood cell suspension was carefully overlayed onto 15 mL of Ficoll/Lymphoprep in a 50 mL falcon tube in the dark, and the tube was centrifuged at 350×g for 30 minutes without using the brake. After removing the peripheral blood mononuclear cells (PBMC) and Ficoll/Lymphoprep, the settled red blood cell (RBC) layer containing granulocytes was treated with ACK lysis buffer (Gibco Cat #A10492-01) to lyse the RBC. After centrifugation at 1200 rpm for 10 minutes, the resulting cell pellet of polymorphonuclear leukocytes (PMNs) was resuspended in RPMI containing 1% newborn calf serum (NBCS). These cells were seeded in a 96-well plate at a density of 50,000 cells/well and treated with different concentrations of the test samples. Cells with 0.2% DMSO served as vehicle control. The plate was incubated in a CO2 incubator at 37° C. for 2 hrs. Finally, the cells treated with test samples were induced with 10 μM A23187 for 10 minutes at 37° C. in a CO2 incubator. The cells treated with only A23187 served as induction control. The plate was centrifuged at 1200 rpm for 5 minutes, and 120 μL cell-free supernatants were collected. Quantitation of LTB4 was performed using an ELISA kit (R&D Systems, Cat #SKGE006B) following the manufacturer's instructions. Absorbance was measured at 450 nm with a correction wavelength of 570 nm in a plate reader (Spectramax2e, Molecular Devices, USA). The reduction of LTB4 production was calculated using the following formula. % reduction of LTB4=[(Normalized Conc. of LTB4 in Induction)−(Normalized Conc. of LTB4 in Test sample)]/(Normalized Conc. of LTB4 in Induction)×100 The results are presented in tables: 3-5.

[3] = tested on: Prostaglandin E2 (PGE2) production; experiment: Assay for Prostaglandin E2 (PGE2) inhibition in LPS-induced peripheral blood mononuclear cells (PBMC); type: cell-based; details: LPS 10 ng/mL induction; for % Inhibition of PGE2: human PBMC
Procedure: Human blood was collected from healthy volunteers from a peripheral vein with a syringe containing EDTA at a final concentration of 2 mM. Plasma was separated by centrifugation at 1000 rpm for 10 minutes, and the residual blood was diluted with RPMI medium supplemented with 10% FBS and 2 mM EDTA in a ratio of 1:3. Thirty milliliters of blood was carefully layered onto the 15 mL of Ficoll/Lymphoprep in a 50 mL falcon tube, and tubes were centrifuged at 350×g for 30 minutes at an acceleration of 9 without using the brake. Buffy coat (interface between medium and Ficoll) containing peripheral blood mononuclear cells (PBMC) was collected carefully in 25 mL of cold 1× phosphate-buffered saline (PBS) and centrifuged at 1200 rpm for 10 minutes. Residual RBCs found in PBMCs pellet were removed by treating with ACK lysis buffer (Gibco Cat #A10492-01) and washed with fresh 1×PBS. PBMC were seeded in a 96-well plate with a density of 0.1×10^6 cells/well and treated with different concentrations of test samples. Cells with 0.2% DMSO served as vehicle control. The plate was incubated in a CO2 incubator at 37° C. for 2 hrs. Finally, cells were induced with LPS (10 ng/mL final concentration) for 4 hours except for vehicle control by keeping the plate at 37° C. in a CO2 incubator. The plate was centrifuged at 1200 rpm for 5 minutes, and 120 μL cell-free supernatants were collected. Quantitation of PGE2 was performed using an ELISA kit (Cayman Chemicals Cat #514010) according to the manufacturer's instructions. Absorbance was measured at 412 nm in a kinetic mode for 30 minutes in a microplate reader (Spectramax2e, Molecular Devices, USA). Percent Inhibition of PGE2 was calculated using the following formula. % Inhibition of PGE2=(Normalized conc. of PGE2 in Induction)−(Normalized conc. of PGE2 in Test sample)/×100 • (Normalized conc. of PGE2 in Induction)
The normalized PGE2 concentration in the LPS induced or the treated wells were obtained from deducting the […].

C-reactive protein (CRP) = experiment: Reduction of C-Reactive Protein (CRP) in muscle, exercise-induced DOMS model of rats; type: in vivo, Sprague Dawley rats; details: 25 mg/kg for seven days; for Mean CRP conc.: EDL muscle tissue lysate; for % reduction of CRP from normal control: EDL muscle
Procedure: On day 1 of the study, male Sprague Dawley rats (8-12 weeks) were randomized into seven groups, each group contained seven animals. Basal readings (Paw Withdrawal Threshold) of mechanical hyperalgesia (Electronic von Frey) were obtained. Animals were dosed with either 25 mg/kg of the test items or vehicle (0.5% CMC-Na) for seven days. On day 5, Delayed Onset of Muscle Soreness (DOMS) was induced by introducing the animals to downhill treadmill running task (rate, 15 m/min; time, 5 min; incline, −20° followed by a 1-min rest, repeated 18 times) for 90 min or till exhaustion. Paw Withdrawal Threshold (PWT) was measured at 1 h, 4 h, 24 h (day 6) and 48 h (day 7) post to eccentric exercise and the exploratory behavior measurements were taken at 1 h and 4 h post to DOMS induction. Terminal necropsy was performed after euthanizing the animals under CO2 asphyxiation.
Small pieces of the extensor digitorum longus (EDL) muscles were macerated in liquid nitrogen (LN2) and homogenized in a tissue lysis buffer [50 mM Tris-HCl (pH 7.4), 150 mM NaCl, 5 mM EDTA, 0.5% sodium dodecyl sulfate (SDS), 1% deoxycholate, 0.1% Triton X-100, 1% Nonidet P-40 (NP-40), 0.05% mercaptoethanol, 10 mg/ml PMSF, 0.5 mg/ml leupeptin, 0.2 mg/ml aprotinin, and 1 mM Na3VO4]. The homogenate was centrifuged at 18928 g for 25 min at 4° C., and the supernatant was collected. Protein concentrations of the tissue lysates were determined using BCA protein assay kit (Thermo Fisher, Rockford, IL). C-reactive protein (CRP) concentrations in the muscle tissue lysates were determined using a commercial kit (Rat CRP/C-Reactive Protein ELISA Kit, Sigma, Cat #RAB0097) following the manufacturer's instructions, where the samples were diluted with assay buffer (1:10000) and performed the assay. The amount of CRP present in the tissue lysates was calculated and expressed as nanogram (ng) per milligram of protein. The reduction of CRP concentration in the muscle samples in the treated groups was calculated using the following formula.

Compound	Solubility of 1.0 g of product in water [1]	pH (1% solution) (pH of 1% solution)	% reduction of LTB4 ([2]; 1.0 μg/mL)	% reduction of LTB4 ([2]; 2.5 μg/mL)	% Inhibition of PGE2 ([3]; 1.0 μg/mL)	% Inhibition of PGE2 ([3]; 2.5 μg/mL)	Mean CRP conc. (C-reactive protein (CRP))	% reduction of CRP from normal control (C-reactive protein (CRP))	inhibition at 1 µg/mL ([3]; Homo sapiens, PBMC, 1.0 μg/mL)	inhibition at 2.5 µg/mL ([3]; Homo sapiens, PBMC, 2.5 μg/mL)
CC(=O)O[C@@H]1CC[C@@]2(C)[C@@H](CC[C@]3(C)[C@@H]2C(=O)C=C2[C@@H]4[C@@H](C)[C@H](C)CC[C@]4(C)CC[C@]23C)[C@@]1(C)C(=O)O [LN03, 3-O-acetyl-11-keto-β-boswellic acid]	>1000 mL	6.63	16.72%	26.83%	15.02%	26.28%	65.44 ng/mg of protein	40.60%	–	–
CC(=O)O[C@@H]1CC[C@@]2(C)[C@@H](CC[C@]3(C)[C@@H]2C(=O)C=C2[C@@H]4[C@@H](C)[C@H](C)CC[C@]4(C)CC[C@]23C)[C@@]1(C)C(=O)O [LN04, 3-O-acetyl-11-keto-β-boswellic acid]	>1000 mL	6.64	16.03%	28.71%	–	–	–	–	17.2%	20%
[Cl-].[K+] [LN11, potassium chloride]	–	–	–	–	–	–	78.21 ng/mg of protein	10.23%	–	–
[Cl-].[Na+] [LN12, sodium chloride]	–	–	–	–	–	–	78.04 ng/mg of protein	10.64%	–	–
potassium salt or complex or chelate of 3-O-acetyl-11-keto-β-boswellic acid [LN05]	–	9.24	21.95%	57.57%	24.42%	42.29%	–	–	–	–
potassium salt or complex or chelate of 3-O-acetyl-11-keto-β-boswellic acid [LN07]	60 mL	9.21	20.26%	55.85%	26.50%	49.08%	56.97 ng/mg of protein	60.75%	–	–
sodium salt of 3-O-acetyl-11-keto-β-boswellic acid [LN06]	80 mL	9.27	20.16%	47.97% and 47.87%	25.64%	41.23%	–	–	–	–
sodium salt of 3-O-acetyl-11-keto-β-boswellic acid [LN08]	–	8.74	21.66%	46.10%	25.61%	47.56%	58.99 ng/mg of protein	55.94%	–	–
